Values joined by “and” are separate entries in the source; they are usually repeats but may differ in a detail not shown here. Equal entries are not always repeated.
tested on: β-toxin production by Clostridium perfringens; type: cell-based; set-up: mean total toxin production: unit not given here

Row | Substance | toxin per cell | total toxin ratio (total toxin with test peptide divided by base media total toxin) | mean total toxin production | amount of toxin produced per cell | total toxin in the two-point ELISA over optimized base medium alone | total toxin produced by the culture | beta toxin accumulation in the culture supernatant | toxin production | total toxin mean value
1 | ALFHE: pentapeptide | increased toxin per cell above the mean |  |  |  |  |  |  |  | 
2 | DKAL: tetrapeptide |  | increased the total toxin ratio |  |  |  |  |  |  | 
3 | DKTNG: pentapeptide | increased toxin per cell above the mean |  |  |  |  |  |  |  | 
4 | DMLQT: pentapeptide | increased toxin per cell above the mean |  |  |  |  |  |  |  | 
5 | DTHHI: pentapeptide | increased toxin per cell above the mean |  |  |  |  |  |  |  | 
6 | EKALE: pentapeptide | increased toxin per cell above the mean |  |  |  |  |  |  |  | 
7 | ELSPH: pentapeptide | increased toxin per cell above the mean |  |  |  |  |  |  |  | 
8 | ESLQM: pentapeptide | increased toxin per cell above the mean |  |  |  |  |  |  |  | 
9 | ETLNL: pentapeptide |  |  | 8.28 |  |  |  |  |  | 
10 | ETVNF: pentapeptide | increased toxin per cell above the mean |  |  |  |  |  |  |  | 
11 | FDIST: pentapeptide |  |  | 8.395 |  |  |  |  |  | 
12 | FEFGV: pentapeptide | increased toxin per cell above the mean |  |  |  |  |  |  |  | 
13 | FEFVG: pentapeptide |  |  | 8.79 and 8.787 | doubled | about 2.2 × | near doubling |  |  | 
14 | FMSTA: pentapeptide | increased toxin per cell above the mean |  |  |  |  |  |  |  | 
15 | FSFVE: pentapeptide |  |  | 8.727 |  |  |  |  |  | 
16 | FSLLE: pentapeptide |  |  | 8.855 |  |  |  |  |  | 
17 | FVPEK: pentapeptide | increased toxin per cell above the mean |  |  |  |  |  |  |  | 
18 | GDYVS: pentapeptide | increased toxin per cell above the mean |  |  |  |  |  |  |  | 
19 | GGMPG: pentapeptide | increased toxin per cell above the mean |  |  |  |  |  |  |  | 
20 | GYPEV: pentapeptide | increased toxin per cell above the mean |  |  |  |  |  |  |  | 
21 | HAPAY: pentapeptide | increased toxin per cell above the mean |  |  |  |  |  |  |  | 
22 | HTVEL: pentapeptide | increased toxin per cell above the mean |  |  |  |  |  | enhance beta toxin accumulation |  | 
23 | IKLAS: pentapeptide |  |  | 7.7475 |  |  |  |  |  | 
24 | KFIEK: pentapeptide | increased toxin per cell above the mean |  |  |  |  |  |  |  | 
25 | KFIFE: pentapeptide | increased toxin per cell above the mean |  |  |  |  |  |  |  | 
26 | KPLDV: pentapeptide | increased toxin per cell above the mean |  |  |  |  |  |  |  | 
27 | KTVGI: pentapeptide | increased toxin per cell above the mean |  |  |  |  |  |  |  | 
28 | LADTF: pentapeptide | increased toxin per cell above the mean |  |  |  |  |  |  |  | 

Row | Substance | toxin per cell | total toxin ratio (total toxin with test peptide divided by base media total toxin) | mean total toxin production | amount of toxin produced per cell | total toxin in the two-point ELISA over optimized base medium alone | total toxin produced by the culture | beta toxin accumulation in the culture supernatant | toxin production | total toxin mean value
29 | LPDLF: pentapeptide | increased toxin per cell above the mean |  |  |  |  |  |  |  | 
30 | LSAL: tetrapeptide |  |  |  |  |  |  |  | significantly inhibited toxin production | 
31 | LSFIE: pentapeptide | increased toxin per cell above the mean |  |  |  |  |  |  |  | 
32 | MHAPP: pentapeptide | increased toxin per cell above the mean |  |  |  |  |  |  |  | 
33 | MMELE: pentapeptide | increased toxin per cell above the mean |  |  |  |  |  |  |  | 
34 | MPNNF: pentapeptide | increased toxin per cell above the mean |  |  |  |  |  |  |  | 
35 | NEGLG: pentapeptide | increased toxin per cell above the mean |  |  |  |  |  |  |  | 
36 | NEYLY: pentapeptide |  |  | 8.665 |  |  |  |  |  | 
37 | NLTEL: pentapeptide |  |  | 8.321 |  |  |  |  |  | 
38 | NNNNN: pentapeptide |  |  |  |  |  |  |  | toxin production above the mean obtained in 0.5% hydrolysate media | 
39 | NQLEV: pentapeptide |  |  | 7.81 |  |  |  |  |  | 
40 | PELME: pentapeptide | increased toxin per cell above the mean |  |  |  |  |  |  |  | 
41 | PLFEQ: pentapeptide | increased toxin per cell above the mean |  |  |  |  |  |  |  | 
42 | QNDVY: pentapeptide | increased toxin per cell above the mean |  |  |  |  |  | enhance beta toxin accumulation |  | 
43 | SNGIY: pentapeptide | increased toxin per cell above the mean |  |  |  |  |  |  |  | 
44 | SQLEL: pentapeptide |  |  | 8.284 |  |  |  |  |  | 
45 | SVMEM: pentapeptide | increased toxin per cell above the mean |  |  |  |  |  |  |  | 
46 | SYIME: pentapeptide | increased toxin per cell above the mean |  |  |  |  |  |  |  | 
47 | TKPFF: pentapeptide | increased toxin per cell above the mean |  |  |  |  |  |  |  | 
48 | VDLLG: pentapeptide | increased toxin per cell above the mean |  |  |  |  |  |  |  | 
49 | VEFTN: pentapeptide | increased toxin per cell above the mean |  |  |  |  |  |  |  | 
50 | VHVYQ: pentapeptide |  |  |  |  |  |  |  | toxin production above the mean obtained in 0.5% hydrolysate media | 
51 | VNVQA: pentapeptide | increased toxin per cell above the mean |  |  |  |  |  |  |  | 
52 | YENLY: pentapeptide | increased toxin per cell above the mean |  |  |  |  |  |  |  | 
53 | YEQQN: pentapeptide | increased toxin per cell above the mean |  |  |  |  |  |  |  | 
54 | YEYIG: pentapeptide |  |  |  |  |  |  |  |  | greater than twice that obtained using 3.5% hydrolysate alone
55 | YEYIY: pentapeptide | increased toxin per cell above the mean |  |  |  |  |  |  |  | 
